Results reported in ChEMBL document CHEMBL5537182, “Small Molecule Benzothiophene with In Vivo Efficacy in a Mouse Model of Drug-Resistant Enterococcus faecium Infection” (J Med Chem, 2024).
Values after ≈ are worked out from the molar mass of the structure shown. Active and inactive are the calls of the source. The calls are words filed in the database; no cut-off is given here.

Assays:
Enterococcus faecium [1] = assay: Anti-bacterial activity against drug-resistant Enterococcus faecium NCTC 7171 assessed as invisible pellets in media measured after overnight incubation; format: functional
[2] = Cytotoxicity against African green monkey Vero cells assessed as cell viability incubated for 48 hrs by MTT assay; format: toxicity, cell-based; details: chlorocebus sabaeus
[3] = Metabolic stability in mouse liver microsomes assessed as half life by LC-MS/MS analysis; format: ADME, Microsome
[4] = Kinetic solubility of the compound in aqueous buffer at pH 7.4 measured after 4 hrs by LC-MS/MS analysis; format: physicochemical; details: read-out: Kinetic_solubility
[5] = AUC (0 to 5 hrs) in CD-1 mouse at 25 mg/kg, po by LC-MS/MS analysis; format: ADME, organism-based; details: in vivo; for AUC(0-t): CD-1, mouse
Staphylococcus aureus = assay: Anti-bacterial activity against Staphylococcus aureus ATCC 43300 assessed as invisible pellets in media measured after overnight incubation; format: functional
Klebsiella pneumoniae = assay: Anti-bacterial activity against Klebsiella pneumonia BAA 2146 assessed as invisible pellets in media measured after overnight incubation; format: functional
Acinetobacter baumannii = assay: Anti-bacterial activity against Acinetobacter baumannii ATCC 19606 assessed as invisible pellets in media measured after overnight incubation; format: functional
Pseudomonas aeruginosa = assay: Anti-bacterial activity against Pseudomonas aeruginosa HER 1018 assessed as invisible pellets in media measured after overnight incubation; format: functional
Enterococcus faecium [6] = assay: Bactericidal activity against drug-resistant Enterococcus faecium NCTC 7171 assessed as invisible pellets in media measured after 2 days incubation; format: functional; details: NCTC 7171, 48 h, time 2 day
[7] = Metabolic stability in human liver microsomes assessed as half life by LC-MS/MS analysis; format: ADME, Microsome
[8] = Plasma stability in human plasma assessed as remaining at 5 uM measured after 5 hrs by LC-MS/MS analysis; format: ADME, cell-free
[9] = Plasma stability in mouse plasma assessed as remaining at 5 uM measured after 5 hrs by LC-MS/MS analysis; format: ADME, cell-free
[10] = Plasma protein binding in human at 5 uM measured after 5 hrs by LC-MS/MS analysis; format: ADME, cell-free; details: read-out: PPB (converted)
[11] = Plasma protein binding in mouse at 5 uM measured after 5 hrs by LC-MS/MS analysis; format: ADME, cell-free; details: read-out: PPB
Cytochrome P450 1A2 = target: T1, Cytochrome P450 1A2 (Homo sapiens, UniProt P05177); assay: Inhibition of CYP1A2 in human liver microsomes using phenacetin as substrate; format: ADME, Microsome
T1 sequence (P05177 whole entry): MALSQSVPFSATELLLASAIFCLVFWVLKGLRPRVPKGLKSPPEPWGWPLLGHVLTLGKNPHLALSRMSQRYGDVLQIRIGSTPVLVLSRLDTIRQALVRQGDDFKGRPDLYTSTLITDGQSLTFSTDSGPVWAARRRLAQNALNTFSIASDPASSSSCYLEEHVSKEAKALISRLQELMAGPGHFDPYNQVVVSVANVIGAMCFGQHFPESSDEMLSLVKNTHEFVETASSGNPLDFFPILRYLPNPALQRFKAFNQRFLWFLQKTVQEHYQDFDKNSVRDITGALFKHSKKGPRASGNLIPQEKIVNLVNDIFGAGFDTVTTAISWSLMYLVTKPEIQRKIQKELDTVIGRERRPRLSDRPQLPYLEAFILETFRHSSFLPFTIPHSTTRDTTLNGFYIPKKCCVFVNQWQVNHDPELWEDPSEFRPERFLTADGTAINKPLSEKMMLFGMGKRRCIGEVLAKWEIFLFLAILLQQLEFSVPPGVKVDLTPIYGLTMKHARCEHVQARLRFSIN

Cytochrome P450 2C9 = Cytochrome P450 2C9 (Homo sapiens, UniProt P11712); assay: Inhibition of CYP2C9 in human liver microsomes using diclofenac as substrate; format: ADME, Microsome
Sequence of Cytochrome P450 2C9 (P11712 whole entry): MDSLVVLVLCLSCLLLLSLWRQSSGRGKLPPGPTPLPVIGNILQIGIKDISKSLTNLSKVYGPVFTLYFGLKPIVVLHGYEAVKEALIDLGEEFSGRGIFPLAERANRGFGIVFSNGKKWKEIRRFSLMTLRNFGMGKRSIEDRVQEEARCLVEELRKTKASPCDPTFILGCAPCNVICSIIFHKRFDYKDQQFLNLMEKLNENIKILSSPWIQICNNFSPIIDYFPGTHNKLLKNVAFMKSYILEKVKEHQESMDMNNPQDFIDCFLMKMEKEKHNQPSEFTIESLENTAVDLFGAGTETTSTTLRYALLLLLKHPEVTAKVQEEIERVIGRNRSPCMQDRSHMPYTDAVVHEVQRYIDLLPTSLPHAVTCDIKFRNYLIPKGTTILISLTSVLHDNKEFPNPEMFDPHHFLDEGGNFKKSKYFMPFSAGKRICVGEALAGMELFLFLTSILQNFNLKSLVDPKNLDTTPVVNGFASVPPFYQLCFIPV

Cytochrome P450 2C19 = Cytochrome P450 2C19 (Homo sapiens, UniProt P33261); assay: Inhibition of CYP2C19 in human liver microsomes using omeprazole as substrate; format: ADME, Microsome
Sequence of Cytochrome P450 2C19 (P33261 whole entry): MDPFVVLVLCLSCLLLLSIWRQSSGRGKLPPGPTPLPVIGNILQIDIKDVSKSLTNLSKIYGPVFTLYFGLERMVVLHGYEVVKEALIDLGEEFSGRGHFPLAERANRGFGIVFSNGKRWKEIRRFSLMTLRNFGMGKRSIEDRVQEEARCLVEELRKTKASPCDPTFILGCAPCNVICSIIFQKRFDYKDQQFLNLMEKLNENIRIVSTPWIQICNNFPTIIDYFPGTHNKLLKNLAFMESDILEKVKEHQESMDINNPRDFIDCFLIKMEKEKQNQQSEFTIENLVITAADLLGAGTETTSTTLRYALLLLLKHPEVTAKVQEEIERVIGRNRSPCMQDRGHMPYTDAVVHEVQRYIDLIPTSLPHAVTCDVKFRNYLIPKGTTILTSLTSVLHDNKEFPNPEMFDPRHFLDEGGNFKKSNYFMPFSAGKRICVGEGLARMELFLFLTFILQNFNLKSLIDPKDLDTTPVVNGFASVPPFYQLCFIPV

Cytochrome P450 2D6 = Cytochrome P450 2D6 (Homo sapiens, UniProt P10635); assay: Inhibition of CYP2D6 in human liver microsomes using dextromethorphan as substrate; format: ADME, Microsome
Sequence of Cytochrome P450 2D6 (P10635 whole entry): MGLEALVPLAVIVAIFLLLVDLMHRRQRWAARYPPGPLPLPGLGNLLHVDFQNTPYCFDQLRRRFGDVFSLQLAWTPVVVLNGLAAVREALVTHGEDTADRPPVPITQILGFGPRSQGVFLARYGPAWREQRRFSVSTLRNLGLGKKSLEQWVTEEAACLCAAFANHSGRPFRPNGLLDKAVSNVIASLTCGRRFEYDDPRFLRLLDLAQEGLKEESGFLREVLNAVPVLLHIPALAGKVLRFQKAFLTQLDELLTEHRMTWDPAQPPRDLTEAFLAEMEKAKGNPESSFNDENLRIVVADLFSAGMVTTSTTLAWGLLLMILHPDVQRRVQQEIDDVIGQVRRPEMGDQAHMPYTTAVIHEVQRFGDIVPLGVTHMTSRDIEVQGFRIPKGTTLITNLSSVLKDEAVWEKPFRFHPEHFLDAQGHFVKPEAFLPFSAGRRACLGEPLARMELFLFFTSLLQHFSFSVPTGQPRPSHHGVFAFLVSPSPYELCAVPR

Cytochrome P450 3A4 = Cytochrome P450 3A4 (Homo sapiens, UniProt P08684); assay: Inhibition of CYP3A4 in human liver microsomes using midazolam as substrate; format: ADME, Microsome
Sequence of Cytochrome P450 3A4 (P08684 whole entry): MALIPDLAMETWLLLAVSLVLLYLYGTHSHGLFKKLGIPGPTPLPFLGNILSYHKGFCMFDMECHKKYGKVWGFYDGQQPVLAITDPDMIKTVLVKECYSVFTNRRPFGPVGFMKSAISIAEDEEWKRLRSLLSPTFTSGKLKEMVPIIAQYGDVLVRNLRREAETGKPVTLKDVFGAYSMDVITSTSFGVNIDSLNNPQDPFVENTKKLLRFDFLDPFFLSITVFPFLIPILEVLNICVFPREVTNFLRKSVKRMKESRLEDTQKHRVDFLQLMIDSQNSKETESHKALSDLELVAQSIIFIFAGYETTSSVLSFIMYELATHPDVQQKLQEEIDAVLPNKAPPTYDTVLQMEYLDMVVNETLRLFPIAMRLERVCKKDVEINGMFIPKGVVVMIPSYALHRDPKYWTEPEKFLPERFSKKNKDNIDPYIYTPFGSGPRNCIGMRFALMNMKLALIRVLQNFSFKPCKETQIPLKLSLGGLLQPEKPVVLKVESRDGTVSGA

[12] = Oral bioavailability in CD-1 mouse at 25 mg/kg by LC-MS/MS analysis; format: ADME, organism-based; details: in vivo
[13] = Toxicity in CD-1 mouse assessed as tolerability at 300 mg/kg, po; format: organism-based; details: in vivo
Enterococcus faecium [14] = assay: Anti-bacterial activity against vancomycin-resistant Enterococcus faecium EN 2966 assessed as invisible pellets in media measured after overnight incubation; format: functional
Enterococcus faecium [15] = assay: In vivo anti-bacterial activity against vancomycin-resistant Enterococcus faecium EN 2966 infected immunocompetent mouse model of acute peritonitis-sepsis assessed as protection at 150 mg/kg, po measured upto 3 days; format: functional, organism-based; details: time <= 3.0 day
Enterococcus faecium [16] = assay: Release of NO in drug-resistant Enterococcus faecium NCTC 7171 assessed as NO generation at 100 uM measured upto 2 hrs by Griess assay; format: functional, organism-based
Enterococcus faecium [17] = assay: In vivo anti-bacterial activity against vancomycin-resistant Enterococcus faecium EN 2966 infected immunocompetent mouse model of acute peritonitis-sepsis assessed as protection at 100 mg/kg, sc measured upto 3 days; format: functional, organism-based; details: time <= 3.0 day

Structure (SMILES) | MIC (Enterococcus faecium [1]) [µM] | CC50 [2] [µM] | other results
O=C(NNC(=O)c1cc2ccccc2o1)c1ccc([N+](=O)[O-])o1 | > 100 | 39 | 
O=C(NNC(=O)c1sc2ccccc2c1Cl)c1ccc([N+](=O)[O-])o1 | 17 (≈ 6.22 µg/mL) | 68 | 
O=C(N/N=C/c1cc2ccccc2s1)c1ccc([N+](=O)[O-])o1 | > 158 | 39 | 
O=C(NNC(=O)c1cc2c(Cl)cccc2s1)c1ccc([N+](=O)[O-])o1 | 34 (≈ 12.4 µg/mL) | 136 | 
O=C(NNC(=O)c1cc2cc(Cl)cc(Cl)c2s1)c1ccc([N+](=O)[O-])o1 | 0.75 (≈ 0.3 µg/mL) | 124 | t1/2 [3]: 13.3 min; solubility kinetic at 4 h [4]: 0.55 µM (≈ 0.22 µg/mL); AUC(0-t) [5]: 111000 ng·h/mL
O=C(c1ccc([N+](=O)[O-])o1)N1CCN(C(=O)c2cc3ccccc3s2)CC1 | > 130 | 16 | 
O=C(NNC(=O)c1sc2cc(Cl)ccc2c1Cl)c1ccc(Cl)s1 | > 123 | 123 | 
O=C(NNC(=O)c1csc2ccccc12)c1ccc([N+](=O)[O-])o1 | 15 (≈ 4.97 µg/mL) | 75 | 
O=C(NNC(=O)c1sc2cc(C(F)(F)F)ccc2c1Cl)c1ccc([N+](=O)[O-])o1 | 3.6 (≈ 1.56 µg/mL) | 110 | 
O=C(NNC(=O)c1cc2ccccc2s1)c1ccc([N+](=O)[O-])o1 | > 174 |  | MIC (Staphylococcus aureus): > 150 µM; MIC (Klebsiella pneumoniae): > 150 µM; MIC (Acinetobacter baumannii): > 150 µM; MIC (Pseudomonas aeruginosa): > 150 µM; t1/2 [3]: 3.3 min; solubility kinetic at 4 h [4]: 103 µM (≈ 34.1 µg/mL); AUC(0-t) [5]: 1280 ng·h/mL
O=C(NNC(=O)c1cc2c(s1)CCCC2)c1ccc([N+](=O)[O-])o1 | 37 (≈ 12.4 µg/mL) | 37 | 
O=C(NNC(=O)c1sc2cc(F)ccc2c1Cl)c1ccc([N+](=O)[O-])o1 | > 130 | > 130 | 
O=C(NNC(=O)c1cc2cc(C(F)(F)F)cc(Cl)c2s1)c1ccc([N+](=O)[O-])o1 | 1.8 (≈ 0.781 µg/mL) | > 110 | MIC (Staphylococcus aureus): 16 µM (≈ 6.94 µg/mL); MIC (Klebsiella pneumoniae): > 120 µM; MIC (Acinetobacter baumannii): > 120 µM; MIC (Pseudomonas aeruginosa): > 120 µM; t1/2 [3]: 57.8 min; solubility kinetic at 4 h [4]: 0.06 µM (≈ 0.026 µg/mL); AUC(0-t) [5]: 43800 ng·h/mL; MBC (Enterococcus faecium [6]): 7.7 µM (≈ 3.34 µg/mL)
O=C(NNC(=O)c1sc2cc(Cl)ccc2c1Cl)c1ccc(Cl)o1 | > 128 | 128 | 
O=C(NNC(=O)c1cc2cccc(Cl)c2s1)c1ccc([N+](=O)[O-])o1 | 4.2 (≈ 1.54 µg/mL) | 68 | 
O=C(NNC(=O)c1sc2c(Cl)cccc2c1Cl)c1ccc([N+](=O)[O-])o1 | 62 (≈ 24.8 µg/mL) | > 120 | 
O=C(NNC(=O)c1sc2cc(Cl)ccc2c1Cl)c1ccc([N+](=O)[O-])o1 | 1.9 (≈ 0.76 µg/mL) | > 120 | t1/2 [3]: 16.6 min; solubility kinetic at 4 h [4]: 0.35 µM (≈ 0.14 µg/mL); AUC ([5]; mouse, po, 25 mg/kg): 75175 ng·h/mL; t1/2 [7]: 85.6 min; Stability [8]: 76.6%; Stability [9]: 89.2%; fraction unbound at 5 h, 5 µM [10]: 0.007; fraction unbound at 5 h, 5 µM [11]: 0.0001; IC50 (Cytochrome P450 1A2): > 50 µM; IC50 (Cytochrome P450 2C9): > 50 µM; IC50 (Cytochrome P450 2C19): > 50 µM; IC50 (Cytochrome P450 2D6): > 50 µM; IC50 (Cytochrome P450 3A4): > 50 µM; F [12]: 47%; Activity [13]: Non-Toxic; MIC (Enterococcus faecium [14]): 1.9 µM (≈ 0.76 µg/mL); Activity (Enterococcus faecium [15]): Active; Activity (Enterococcus faecium [16]): inactive

Structure (SMILES) | MIC (Enterococcus faecium [1]) [µM] | CC50 [2] [µM] | other results
CC(C)(NC(=O)c1ccc([N+](=O)[O-])o1)c1cc2ccccc2s1 | > 150 | 38 | 
O=[N+]([O-])c1ccc(-c2nnc(-c3cc4ccccc4s3)o2)o1 | > 160 | 160 | 
O=C(NNC(=O)c1cc2c(Cl)cc(Cl)cc2s1)c1ccc([N+](=O)[O-])o1 | 62 (≈ 24.8 µg/mL) | > 124 | 
CC(=O)NC[C@H]1CN(c2ccc(N3CCOCC3)c(F)c2)C(=O)O1 [LINEZOLID] | 4.6 (≈ 1.55 µg/mL) |  | MIC (Enterococcus faecium [14]): 4.7 µM (≈ 1.59 µg/mL)
O=C(NNC(=O)c1ccc([N+](=O)[O-])o1)c1cc2ccccc2[nH]1 | > 100 | > 160 | 
O=C(NNC(=O)c1cc2cc(Cl)ccc2s1)c1ccc([N+](=O)[O-])o1 | > 137 | > 137 | 
CN[C@H](CC(C)C)C(=O)N[C@H]1C(=O)N[C@@H](CC(N)=O)C(=O)N[C@H]2C(=O)N[C@H]3C(=O)N[C@H](C(=O)N[C@H](C(=O)O)c4cc(O)cc(O)c4-c4cc3ccc4O)[C@H](O)c3ccc(c(Cl)c3)Oc3cc2cc(c3O[C@@H]2O[C@H](CO)[C@@H](O)[C@H](O)[C@H]2O[C@H]2C[C@](C)(N)[C@H](O)[C@H](C)O2)Oc2ccc(cc2Cl)[C@H]1O [VANCOMYCIN] | 1.1 (≈ 1.59 µg/mL) |  | MIC (Enterococcus faecium [14]): ≥ 30 µM; Activity (Enterococcus faecium [17]): Active
NC[C@H]1O[C@H](O[C@H]2[C@H](O)[C@@H](O[C@H]3O[C@H](CO)[C@@H](O)[C@H](N)[C@H]3O)[C@H](N)C[C@@H]2N)[C@H](O)[C@@H](O)[C@@H]1O [KANAMYCIN] | > 24 |  | 
O=C(NNC(=O)c1sc2cc(Cl)ccc2c1Cl)c1ccc([N+](=O)[O-])s1 | > 120 | > 120 | 
O=C(NNC(=O)c1sc2ccc(Cl)cc2c1Cl)c1ccc([N+](=O)[O-])o1 | > 124 | > 124 | 
O=C(NNC(=O)c1cc2ccc(Cl)cc2s1)c1ccc([N+](=O)[O-])o1 | > 136 | > 136 | 
CCCCCCCCCC(=O)N[C@@H](Cc1c[nH]c2ccccc12)C(=O)N[C@H](CC(N)=O)C(=O)N[C@@H](CC(=O)O)C(=O)N[C@@H]1C(=O)NCC(=O)N[C@@H](CCCN)C(=O)N[C@@H](CC(=O)O)C(=O)N[C@H](C)C(=O)N[C@@H](CC(=O)O)C(=O)NCC(=O)N[C@H](CO)C(=O)N[C@@H]([C@H](C)CC(=O)O)C(=O)N[C@@H](CC(=O)c2ccccc2N)C(=O)O[C@@H]1C | 10 (≈ 16.2 µg/mL) |  | 
C[C@@H](O)[C@H]1C(=O)N2C(C(=O)O)=C(S[C@@H]3CN[C@H](C(=O)N(C)C)C3)[C@H](C)[C@H]12 [MEROPENEM] | 19 (≈ 7.29 µg/mL) |  | 
O=C(NNC(=O)c1sc2cccc(Cl)c2c1Cl)c1ccc([N+](=O)[O-])o1 | 7.8 (≈ 3.12 µg/mL) | > 124 | 
O=C(NNC(=O)c1nc2ccccc2s1)c1ccc([N+](=O)[O-])o1 | 30 (≈ 9.97 µg/mL) | 150 | 
O=C(NNC(=O)c1cc2cccnc2s1)c1ccc([N+](=O)[O-])o1 | > 100 | 150 | 
O=C(NCCNC(=O)c1cc2ccccc2s1)c1ccc([N+](=O)[O-])o1 | > 140 | 139 | 
